The record followed here is patent US11306062B2, “Forms of fedratinib dihydrochloride” (Johnson Matthey Public Limited Company, priority 2019, dated 2022).

The structures appear in SMILES notation.

A short description of series [1]: Dynamic vapor sorption (DVS) humidity cycling, solid analysed by XRPD. Format: physicochemical. Conditions: start 50% relative humidity, up to 90%, down to 0%, 10% steps, cycle repeated 3 times. The method, then: (§1) XRPD patterns are obtained using a Bruker D8 Advance equipped with a Cu Kα radiation source (λ=1.54 Å), a 9-position sample holder and a LYNXEYE super speed detector. Samples are placed on zero-background, silicon plate holders for analysis. One skilled in the art would recognize that the ° 2θ values and the relative intensity values are generated by performing a peak search on the measured data and the d-spacing values are calculated by the instrument from the ° 2θ values using Bragg's equation. One skilled in the art would further recognize that the relative intensity for the measured peaks may vary as a result of sample preparation, orientation and instrument used, for example.
In another embodiment, amorphous fedratinib diHCl is prepared by: • a) subjecting Form A of fedratinib diHCl to a dynamic vapor sorption method to yield amorphous fedratinib diHCl, wherein the dynamic vapor sorption method comprises exposing the Form A of fedratinib diHCl to a relative humidity of about 50% and adjusting the relative humidity to between about 0-90% with about a 10% increase or decrease in humidity at each step for 3 cycles.
Form A of fedratinib diHCl is subjected to DVS with initial exposure to 50% relative humidity. The relative humidity is then increased to 90% with a 10% increase in humidity at each step. […]

Series [2] can be described thus: Retention of Form A on slurrying in multiple solvents (XRPD). Format: physicochemical. The conditions noted are these: ~30 mg in 0.2 mL of each of water, ethanol, MTBE, IPA, IPAc, 3-methyl-1-butanol, toluene, anisole, acetone, THF, MEK, MIBK, DCM, 1,4-dioxane, 2-butanol, 2-methyl THF, isobutyl acetate, tert-butanol, methyl cyclohexane, CPME; slurried about 3 days at 20° C. The method, then:
as §1
In another embodiment, Form A of fedratinib diHCl is retained by producing a slurry. […]

Take `Cc1cnc(Nc2ccc(OCCN3CCCC3)cc2)nc1Nc1cccc(S(=O)(=O)NC(C)(C)C)c1` [Form A of fedratinib diHCl, N-tert-butyl-3-[[5-methyl-2-[4-(2-pyrrolidin-1-ylethoxy)anilino]pyrimidin-4-yl]amino]benzenesulfonamide]: in series [1], the “solid form by XRPD after DVS” value was “determined to be amorphous fedratinib diHCl”. Moreover, in series [2], the “solid form by XRPD after slurry” value is on record as “determined to be Form A of fedratinib diHCl”.
